System: TS mRNA
Assay: Inhibition of TS expression by siRNA in DLD-1/5FU cells, Taqman real-time PCR
Type: cell-based, human
Conditions: 72 hours after transfection; for effects of inhibiting TS expression (in words): siRNA 25 nM
Description: The DLD-1/5FU human colorectal cancer cell lines (Int. J. Oncol., 2000; 17: 277-83) that had been resported to be resistant to 5-FU were cultured in a 6-cm culture dish for 24 hours until the cells reached 50% to 60% confluence.
Subsequently, siRNA molecules (i.e., TS-siRNA1 molecules (sense strand: SEQ ID NO: 1; antisense strand: SEQ ID NO: 2), TS-siRNA2 molecules (sense strand: SEQ ID NO: 3; antisense strand: SEQ ID NO: 4), and TS-siRNA3 molecules (sense strand: SEQ ID NO: 5; antisense strand: SEQ ID NO: 6)) were chemically synthesized, and 2.5 ml of a solution containing each of the above siRNA molecules (final concentration: 25 nM) and 25 μl of TransIT-TKO Transfection Reagent (Minis) was transfected into the above cells in accordance with a conventional technique. Scrambled siRNA (TS-Scra1) was used as a negative control.
The effects of siRNA molecules on inhibition of TS expression were inspected via Taqman real-time PCR (ABI PRISM 7700 Sequence Detection System; Applied Biosystems) 72 hours after transfection. The Assays-on-Demand Gene Expression Assay Mix (assay ID Hs00426591_ml; PCR product size: 87 bp; Applied Biosystems) was used for TS primers and probes. GAPDH was used as the internal standard (Assays-on-Demand Gene Expression System; assay ID: Hs99999905_ml; PCR product size: 122 bp; Applied Biosystems).

| Substance | effects of inhibiting TS expression (in words) | effects on inhibition of TS expression (siRNA final concentration 25 nM, GAPDH internal standard) [%] |
| --- | --- | --- |
| TS-siRNA3: chemically synthesized siRNA targeting TS; sense strand SEQ ID NO: 5, antisense strand SEQ ID NO: 6 (sense CGAUCAUGAUGUAGAGUGU; antisense ACACUCUACAUCAUGAUCG; listed as RNA, chemistry not given here) | exhibited effects of inhibiting TS expression | – |
| TS-siRNA1: chemically synthesized siRNA targeting TS; sense strand SEQ ID NO: 1, antisense strand SEQ ID NO: 2 (sense GUAACACCAUCGAUCAUGA; antisense UCAUGAUCGAUGGUGUUAC; listed as RNA, chemistry not given here) | – | 83.5±1.3 |
| TS-siRNA2: chemically synthesized siRNA targeting TS; sense strand SEQ ID NO: 3, antisense strand SEQ ID NO: 4 (sense GAAUACAGAGAUAUGGAAU; antisense AUUCCAUAUCUCUGUAUUC; listed as RNA, chemistry not given here) | exhibited effects of inhibiting TS expression | – |

— patent US8524876B2, “RNAi molecule targeting thymidylate synthase and application thereof” (Delta-Fly Pharma, Inc., priority 2009, dated 2013)
